Numbers after ± are expanded uncertainties.
Test: osmotic coefficient (dimensionless); mn = molality of the nth substance listed, in mol/kg
Conditions: 101 kPa, Liquid, Knauer K-7000 vapour pressure osmometer

CCn1cc[n+](C)c1.[Cl-] [1-ethyl-3-methylimidazolium chloride] + O
osmotic coefficient
Conditions	313.15 K	333.15 K
m1 = 0.1847	0.97 ± 0.002	0.936 ± 0.003
m1 = 0.3033	0.949 ± 0.003	0.918 ± 0.004
m1 = 0.3896	0.941 ± 0.003	0.896 ± 0.005
m1 = 0.5094	0.923 ± 0.004	0.865 ± 0.007
m1 = 0.7105	0.895 ± 0.005	0.847 ± 0.008
m1 = 1.047	0.861 ± 0.007	0.812 ± 0.009
m1 = 1.294	0.842 ± 0.008	0.801 ± 0.01
m1 = 1.678	0.835 ± 0.008	0.79 ± 0.011
m1 = 2.113	0.831 ± 0.008	0.784 ± 0.011
m1 = 2.49	0.829 ± 0.009	0.788 ± 0.011
m1 = 2.947	0.844 ± 0.008	0.797 ± 0.01
m1 = 3.237	0.852 ± 0.007	0.809 ± 0.01
m1 = 3.722	0.885 ± 0.006	0.831 ± 0.008
m1 = 4.113	0.921 ± 0.004	0.855 ± 0.007

CCCCn1cc[n+](C)c1.[Cl-] [1-butyl-3-methylimidazolium chloride] + CCO
osmotic coefficient
Conditions	313.15 K	333.15 K
m1 = 0.1278	1.02 ± 0.001	0.782 ± 0.011
m1 = 0.3749	0.887 ± 0.006	0.709 ± 0.015
m1 = 0.6198	0.802 ± 0.01	0.666 ± 0.017
m1 = 0.7747	0.783 ± 0.011	0.647 ± 0.018
m1 = 1.096	0.742 ± 0.013	0.63 ± 0.019
m1 = 1.437	0.717 ± 0.014	0.613 ± 0.019
m1 = 1.904	0.685 ± 0.016	0.589 ± 0.021
m1 = 2.318	0.68 ± 0.016	0.576 ± 0.021
m1 = 2.688	0.657 ± 0.017	0.566 ± 0.022
m1 = 3.018	0.653 ± 0.017	0.553 ± 0.022
m1 = 3.348	0.66 ± 0.017	0.55 ± 0.023
m1 = 3.521	0.66 ± 0.017	0.548 ± 0.023

CCOS(=O)(=O)[O-].CC[n+]1cccc(C)c1 [1-ethyl-3-methylpyridinium ethylsulfate] + O
osmotic coefficient
Conditions	313.15 K	333.15 K
m1 = 0.1419	0.956 ± 0.002	0.948 ± 0.003
m1 = 0.2108	0.927 ± 0.004	0.925 ± 0.004
m1 = 0.3168	0.897 ± 0.005	0.887 ± 0.006
m1 = 0.3829	0.873 ± 0.006	0.864 ± 0.007
m1 = 0.5036	0.846 ± 0.008	0.836 ± 0.008
m1 = 0.6837	0.828 ± 0.009	0.811 ± 0.009
m1 = 1.034	0.813 ± 0.009	0.784 ± 0.011
m1 = 1.326	0.808 ± 0.01	0.782 ± 0.011
m1 = 1.726	0.807 ± 0.01	0.782 ± 0.011
m1 = 2.11	0.813 ± 0.009	0.792 ± 0.01
m1 = 2.501	0.826 ± 0.009	0.802 ± 0.01
m1 = 2.892	0.843 ± 0.008	0.809 ± 0.01
m1 = 3.303	0.859 ± 0.007	0.817 ± 0.009

CCCCCCn1cc[n+](C)c1.[Cl-] [1-hexyl-3-methylimidazolium chloride] + CCO
osmotic coefficient
Conditions	313.15 K	333.15 K
m1 = 0.0583	0.955 ± 0.002	0.742 ± 0.013
m1 = 0.0975	0.92 ± 0.004	0.714 ± 0.014
m1 = 0.4274	0.735 ± 0.013	0.608 ± 0.02
m1 = 0.6999	0.695 ± 0.015	0.584 ± 0.021
m1 = 1.014	0.677 ± 0.016	0.568 ± 0.022
m1 = 1.354	0.662 ± 0.017	0.561 ± 0.022
m1 = 1.597	0.659 ± 0.017	0.558 ± 0.022
m1 = 1.924	0.652 ± 0.017	0.551 ± 0.022
m1 = 2.211	0.648 ± 0.018	0.553 ± 0.022
m1 = 2.579	0.636 ± 0.018	0.544 ± 0.023
m1 = 2.859	0.635 ± 0.018	0.544 ± 0.023
m1 = 3.272	0.628 ± 0.019	0.535 ± 0.023

— the NIST ThermoML archive (doi:10.1016/j.jct.2008.08.011)
